Our source for the Vmax and IC50 values is ChEMBL document CHEMBL5634160, “Synthesis, biological evaluation and action mechanism of 7H-[1,2,4] triazolo [3,4-b] [1,3,4] thiadiazine-phenylhydrazone derivatives as α-glucosidase inhibitors” (Eur J Med Chem, 2023).

Series [1] has as its system COc1cc(/C=N/Nc2nnc3n2N=C(c2ccccc2)CS3)cc(OC)c1O. Briefly: Mixed-type inhibition of Saccharomyces cerevisiae alpha-glucosidase using nitrophenol-alpha-D-glucopyranoside (pNPG) as substrate assessed as Vmax at 24 to 48 uM measured after 15 mins by Lineweaver-Burk plot analysis. As to conditions: dose 24-48 µM. It counts as protein assay.
Another series concerns the target Alpha-glucosidase (Saccharomyces cerevisiae S288c, UniProt P53341+P38158+P07265). Briefly: Inhibition of Saccharomyces cerevisiae alpha-glucosidase using nitrophenol-alpha-D-glucopyranoside (pNPG) as substrate incubated for 15 mins. It counts as protein assay.

The IC50 is the concentration that gives 50% inhibition. A low value points to greater potency in that assay.

Alpha-glucosidase (Saccharomyces cerevisiae S288c), sequence (P07265 whole entry, looked up): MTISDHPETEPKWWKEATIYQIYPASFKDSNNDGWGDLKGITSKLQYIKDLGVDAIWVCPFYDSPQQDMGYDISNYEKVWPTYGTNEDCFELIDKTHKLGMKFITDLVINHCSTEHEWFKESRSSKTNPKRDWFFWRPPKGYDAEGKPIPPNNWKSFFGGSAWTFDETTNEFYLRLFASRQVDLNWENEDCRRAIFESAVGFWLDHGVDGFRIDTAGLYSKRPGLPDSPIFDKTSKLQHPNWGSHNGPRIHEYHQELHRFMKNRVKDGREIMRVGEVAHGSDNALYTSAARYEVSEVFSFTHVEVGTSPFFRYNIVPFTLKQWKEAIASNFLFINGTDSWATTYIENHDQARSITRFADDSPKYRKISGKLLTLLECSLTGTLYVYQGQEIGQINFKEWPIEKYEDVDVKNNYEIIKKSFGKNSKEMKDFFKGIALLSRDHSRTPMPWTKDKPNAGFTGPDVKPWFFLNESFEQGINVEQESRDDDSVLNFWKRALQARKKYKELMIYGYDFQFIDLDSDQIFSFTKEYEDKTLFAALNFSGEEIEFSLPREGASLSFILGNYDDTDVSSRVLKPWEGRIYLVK
Alpha-glucosidase (Saccharomyces cerevisiae S288c), sequence (P38158 whole entry, looked up): as the sequence (P07265 whole entry, looked up) above, with R273T, V305L counted along it
Alpha-glucosidase (Saccharomyces cerevisiae S288c), sequence (P53341 whole entry, looked up): as the sequence (P07265 whole entry, looked up) above, with R273T, F467L counted along it

In the case of “Alpha-glucosidase (Saccharomyces cerevisiae S288c) (from UniProt P53341+P38158+P07265)”, in series [1], the Vmax turned out to be 0.07 µM/L.min.

Regarding `COc1ccc(/C=N/Nc2nnc3n2N=C(c2ccccc2)CS3)cc1`, the IC50 against Alpha-glucosidase came to 85.86 µM.

Compound `Fc1ccccc1/C=N/Nc1nnc2n1N=C(c1ccccc1)CS2` yielded an IC50 against Alpha-glucosidase greater than 250 µM.

As for `COc1cc(/C=N/Nc2nnc3n2N=C(c2ccccc2)CS3)cc(OC)c1OC`, the half-inhibitory concentration (IC50) against Alpha-glucosidase is 91.47 µM.

At Alpha-glucosidase, `COc1ccc(/C=N/Nc2nnc3n2N=C(c2ccccc2)CS3)cc1OC` yielded an IC50 of 140.2 µM.

As to `Oc1ccccc1/C=N/Nc1nnc2n1N=C(c1ccccc1)CS2`, on Alpha-glucosidase, the IC50 was found to be 55.42 µM.

On Alpha-glucosidase, `Brc1ccccc1/C=N/Nc1nnc2n1N=C(c1ccccc1)CS2` came in with an IC50 of 32.12 µM.

With `Oc1ccc(/C=N/Nc2nnc3n2N=C(c2ccccc2)CS3)cc1`, the IC50 on Alpha-glucosidase worked out at 213.5 µM.
